The text below walks through data of paper PMC4366722 (Iranian Journal of Basic Medical Sciences, 2015).

Data set [1] has as its system mushroom tyrosinase. In words: Diphenolase. Conditions: diphenolase activity. Type of data set: biochemical.
For data set [2], the system named is Melanoma cell lines (NCBI Code: C136; human skin). In words: Cytotoxicity assay. Format: cell-based. Conditions: melanoma cells, 24 hr, MTT.

Entries after “also recorded” stand apart in the source; their conditions may differ.

As for `O=C(O)c1cccnc1` [Nicotinic acid, nicotinic acid], in data set [1], the “Inhibition (reversibility)” value was “reversibly” and the Inhibition type entry is given as “competitive”. Further, the “effect on melanoma cell viability / cytotoxicity (in words)” value in data set [2] was “declined remarkably; also recorded: cytotoxic effects”.
On the same counts, the results for `Nc1ccccc1C(=O)O` [2-amino benzoic acid] are “reversibly”, “noncompetitive” and “no significant change”.
Consider `O=C(O)c1ccccn1` [Picolinic acid, picolinic acid], for which, in data set [1], the “Inhibition (reversibility)” value is reported as “reversibly” and the Inhibition type result is given as “competitive”. The “effect on melanoma cell viability / cytotoxicity (in words)” value in data set [2] is on record as “declined remarkably; also recorded: cytotoxic effects”.
Taken in the same sequence, the figures for `Nc1ccc(C(=O)O)cc1` [4-amino benzoic acid] were “reversibly”, “noncompetitive” and “no significant change”.
